Test results as given in patent US20100233194A1, “TREATMENT OF NEOVASCULAR OCULAR DISEASE STATES” (priority 2007, published 2010).

Test system: VEGF-induced retinal vascular leakage
Experiment: VEGF-induced vascular leakage in a rabbit model of blood-retinal barrier breakdown (ocular fluorophotometry)
Conditions: for Inhibition of retinal vascular leakage: single intravitreal injection Day 0, 500 ng rhVEGF165 Day 5, fluorophotometry Day 7, rabbit

`CC1(C)O[C@@H]2C[C@H]3[C@@H]4CCC5=CC(=O)C=C[C@]5(C)[C@@]4(F)[C@@H](O)C[C@]3(C)[C@]2(C(=O)CO)O1` [TA, triamcinolone acetonide] was tested, and the “Inhibition of retinal vascular leakage” value (TA 75 μg) was 13%, the “Inhibition of retinal vascular leakage” value (TA 400 μg) was 96% and the “inhibition of the VEGF-induced retinal vascular leakage” value (separate study, TA 75 μg alone) was 10%.
